# Measurements reported in US9182402B2, “Hepsin inhibitors” (Fred Hutchinson Cancer Research Center, priority 2008, dated 2015).
# Legend:
# recombinant human hepsin [1] = molecular target: recombinant human hepsin (Homo sapiens, UniProt P05981); test: Hepsin activity assay (chromogenic substrate pyroGlu-Pro-Arg-pNA); type: biochemical; details: 30 minutes preincubation at room temperature, substrate at Km
# Protocol: (§1) D. Hepsin, Trypsin and Thrombin Activity Assays.
# (§2) Purified recombinant hepsin was preincubated with indicated compounds for 30 minutes at room temperature.
# recombinant human hepsin [2] = test: as above; type: biochemical; details: hepsin relative to trypsin and thrombin
# Protocol: as §1, §2
# thrombin = thrombin (Bos taurus (Bovine), UniProt P00735); test: Thrombin activity assay (chromogenic substrate); type: biochemical; details: 30 minutes preincubation at room temperature, substrate at Km
# Protocol: (§3) Titration of the chromogenic substrate pryoGlu-Pro-Arg-pNA was performed for each enzyme and the resulting substrate-velocity data fit with nonlinear regression using GraphPad Prism 4 software (GraphPad, La Jolla, Calif.) to calculate Vmax and Km. […] The reactions were then followed using a kinetic microplate reader and the linear rates of increase in absorbance at 405 nm expressed as percent activity (100%×vi/vo). At least three independent experiments were performed for each enzyme. The IC50 was calculated by fitting the data to a four-parameter non-linear regression using GraphPad Prism 4.
# [3] = molecular target: full-length wild-type murine hepsin expressed in HEK 293FT cells (Mus musculus (Mouse), UniProt O35453); test: Hepsin-dependent pericellular serine proteolytic activity assay; type: cell-based; details: overnight incubation; for attenuation of hepsin-dependent pericellular proteolytic activity: 50 μM, activity/expression level relative to vehicle; for pericellular proteolytic activity (in words): 20 and 50 μM
# Protocol: Loading was verified via immunoblot against β-actin.
# G. Pericellular Serine Proteolytic Activity Assay. […] After 3.5 hrs, transfection media was replaced with fresh media containing 20 μM or 50 μM of test compounds or solvent control (0.5% DMSO in media) and cells incubated overnight. Attached cell monolayers were then washed twice with PBS and once with assay buffer (5% CO2 equilibrated phenol-red free DMEM with 1% BSA) to remove residual serum proteases/inhibitors. Cells were then incubated in assay buffer containing 20 or 50 μM compounds for 30 minutes at 37° C. […] Percent inhibition was calculated as residual activity relative to solvent control. Matched samples were used in parallel to determine toxicity of the test compounds to HEK 293FT cells in this system using the CellTiter-Glo™ assay.
# D. Inhibition of Hepsin-Dependent Pericellular Proteolytic Activity. To determine whether the identified compounds were able to inhibit cell-based hepsin activity, an assay was devised to measure hepsin-dependent pericellular serine proteolytic activity (FIG. 5A) (Raynaud et al., 1992 J Cell Physiol 151:378; Bauvois et al., 1990 Eur. J. Immunol. 20:459; Bauvois et al., 1992 Eur. J. Immunol. 22:923; Sameni et al., 2000 Neoplasia 2:496; McGowen et al., 2000 Canc. Res. 60:4771). […] Attached cell monolayers were incubated in assay buffer with peptide substrate and the reactions were allowed to proceed at 37° C. […] Activity levels were adjusted by altering hepsin expression levels to within the linear range of detection. A positive linear rate of activity was observed only for wild-type hepsin-expressing cells and was abolished in the presence of the broad spectrum serine protease inhibitor PEFAbloc.
# trypsin = trypsin (Sus scrofa (Pig), UniProt P00761); test: Trypsin activity assay (chromogenic substrate); details: read-out: IC50 trypsin; 30 minutes preincubation at room temperature, substrate at Km
# Protocol: as §3
# LNCaP cells = test: Cell cytotoxicity assay (CellTiter-Glo, ATP-luciferase); details: 20 μM, 72 hours, compounds replenished daily
# [4] = system: MP-1 mouse prostate epithelial cell line; test: as above; details: MP-1, 20 μM, 72 hours, compounds replenished daily
# HepG2 cells = test: as above; details: HepG2, 20 μM, 72 hours, compounds replenished daily
# hepsin = hepsin (Mus musculus (Mouse), UniProt O35453); test: Immunoblot of hepsin expression levels in compound treated HEK 293FT cells; details: 20 and 50 μM, 24 hours
# Protocol: The membrane was blocked overnight in TBST buffer containing: 5% non-fat milk, 2% normal goat serum in 50 mM Tris-HCl, pH 8.0, 100 mM NaCl, 0.1% Tween-20. The membrane was then incubated in 3% BSA in TBST with polyclonal anti-hepsin antibody (1:1000) for two hours at room temperature, washed 3×5 minutes with TBST and incubated for one hour in 0.1% BSA in TBST containing goat-anti-rabbit-HRP secondary antibody (1:2000), washed 3×5 minutes in TBST and developed with ECL (Pierce Chemicals, Rockford, Ill.). […] Expression levels were quantified by densitometry using ImageQuantTL™ (GE Healthcare Life Sciences, Piscataway, N.J.).
# As treatment with chemical compounds may alter hepsin expression level (and thereby impact pericellular proteolytic activity), hepsin levels in drug-treated cells were determined via immunoblotting (FIG. 6B).
# [5] = approximate value; cited from earlier work
# Chain of full-length wild-type murine hepsin expressed in HEK 293FT cells (O35453 other isoform, or with tags, fused parts or gaps): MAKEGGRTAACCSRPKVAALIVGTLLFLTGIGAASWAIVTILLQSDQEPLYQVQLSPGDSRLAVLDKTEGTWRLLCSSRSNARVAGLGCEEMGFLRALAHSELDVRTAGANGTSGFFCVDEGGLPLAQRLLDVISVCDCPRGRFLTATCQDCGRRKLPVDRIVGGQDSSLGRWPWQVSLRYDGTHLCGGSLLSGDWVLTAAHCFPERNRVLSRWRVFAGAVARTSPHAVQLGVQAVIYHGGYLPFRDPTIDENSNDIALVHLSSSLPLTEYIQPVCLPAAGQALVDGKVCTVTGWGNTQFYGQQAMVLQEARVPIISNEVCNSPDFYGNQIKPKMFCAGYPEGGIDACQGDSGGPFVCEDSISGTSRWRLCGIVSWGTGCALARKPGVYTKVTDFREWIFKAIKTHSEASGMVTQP
# Chain of recombinant human hepsin (Homo sapiens, UniProt P05981) (P05981 1-162 limits assumed): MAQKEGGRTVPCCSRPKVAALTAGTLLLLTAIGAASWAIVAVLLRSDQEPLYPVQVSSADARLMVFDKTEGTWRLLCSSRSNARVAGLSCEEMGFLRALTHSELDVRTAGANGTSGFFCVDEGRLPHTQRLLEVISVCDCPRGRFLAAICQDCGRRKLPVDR
# Chain of recombinant human hepsin (Homo sapiens, UniProt P05981) (P05981 163-417 limits assumed): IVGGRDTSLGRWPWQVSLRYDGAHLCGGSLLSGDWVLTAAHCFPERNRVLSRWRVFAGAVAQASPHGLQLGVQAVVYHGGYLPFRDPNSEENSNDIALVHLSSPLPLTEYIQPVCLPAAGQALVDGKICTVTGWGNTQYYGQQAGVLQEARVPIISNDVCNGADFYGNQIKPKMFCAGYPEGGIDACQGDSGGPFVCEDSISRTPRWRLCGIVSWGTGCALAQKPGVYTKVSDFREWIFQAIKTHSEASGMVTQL
# Chain of trypsin (P00761 9-231): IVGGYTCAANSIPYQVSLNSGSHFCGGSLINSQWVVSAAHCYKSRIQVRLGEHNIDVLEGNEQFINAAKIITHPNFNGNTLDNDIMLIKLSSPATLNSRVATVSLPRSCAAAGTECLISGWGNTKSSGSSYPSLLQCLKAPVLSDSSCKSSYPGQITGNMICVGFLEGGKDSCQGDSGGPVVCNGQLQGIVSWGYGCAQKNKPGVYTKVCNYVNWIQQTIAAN
Compound,IC50 (recombinant human hepsin [1]) [µM],specificity for hepsin (recombinant human hepsin [2]) [fold],IC50 (thrombin) [µM],attenuation of hepsin-dependent pericellular proteolytic activity [3] [%],attenuation of hepsin-dependent pericellular proteolytic activity ([3]; listed as Meclizine) [%],pericellular proteolytic activity (in words) [3],IC50 (trypsin) [µM],cellular toxicity (cell viability) (LNCaP cells),cellular toxicity (cell viability) [4],cellular toxicity (cell viability) (HepG2 cells),hepsin expression levels (hepsin),logP [5]
"Cc1cccc(CN2CCN(C(c3ccccc3)c3ccc(Cl)cc3)CC2)c1 (stereo not shown) [Compound 13, 1-[(4-chlorophenyl)(phenyl)methyl]-4-(3-methylbenzyl)piperazine, reference compound]",2.02 ± 0.37,> 10,> 20,~25,30,attenuated pericellular proteolytic activity in a dose dependent manner,> 20,limited or no cytotoxicity,limited or no cytotoxicity,limited or no cytotoxicity,without substantially affecting hepsin expression levels,–
"CC(C)(Sc1cc(C(C)(C)C)c(O)c(C(C)(C)C)c1)Sc1cc(C(C)(C)C)c(O)c(C(C)(C)C)c1 [Compound 14, 4,4′-[propane-2,2-diylbis(sulfanediyl)]bis(2,6-di-tert-butylphenol), reference compound]",0.43 ± 0.05,–,> 20,–,–,not have shown an ability to reduce pericellular serine protease activity,33.5 ± 11.5,limited or no cytotoxicity,limited or no cytotoxicity,limited or no cytotoxicity,–,~10
